{"source": "patent US9227977B2", "about": "“Phosphoinositide 3-kinase inhibitors” (RESPIVERT LTD., priority 2013, dated 2016)", "key": {"[1]": {"target": "PI3K δ (Homo sapiens (Human), UniProt O00329)", "sequence (O00329 whole entry)": "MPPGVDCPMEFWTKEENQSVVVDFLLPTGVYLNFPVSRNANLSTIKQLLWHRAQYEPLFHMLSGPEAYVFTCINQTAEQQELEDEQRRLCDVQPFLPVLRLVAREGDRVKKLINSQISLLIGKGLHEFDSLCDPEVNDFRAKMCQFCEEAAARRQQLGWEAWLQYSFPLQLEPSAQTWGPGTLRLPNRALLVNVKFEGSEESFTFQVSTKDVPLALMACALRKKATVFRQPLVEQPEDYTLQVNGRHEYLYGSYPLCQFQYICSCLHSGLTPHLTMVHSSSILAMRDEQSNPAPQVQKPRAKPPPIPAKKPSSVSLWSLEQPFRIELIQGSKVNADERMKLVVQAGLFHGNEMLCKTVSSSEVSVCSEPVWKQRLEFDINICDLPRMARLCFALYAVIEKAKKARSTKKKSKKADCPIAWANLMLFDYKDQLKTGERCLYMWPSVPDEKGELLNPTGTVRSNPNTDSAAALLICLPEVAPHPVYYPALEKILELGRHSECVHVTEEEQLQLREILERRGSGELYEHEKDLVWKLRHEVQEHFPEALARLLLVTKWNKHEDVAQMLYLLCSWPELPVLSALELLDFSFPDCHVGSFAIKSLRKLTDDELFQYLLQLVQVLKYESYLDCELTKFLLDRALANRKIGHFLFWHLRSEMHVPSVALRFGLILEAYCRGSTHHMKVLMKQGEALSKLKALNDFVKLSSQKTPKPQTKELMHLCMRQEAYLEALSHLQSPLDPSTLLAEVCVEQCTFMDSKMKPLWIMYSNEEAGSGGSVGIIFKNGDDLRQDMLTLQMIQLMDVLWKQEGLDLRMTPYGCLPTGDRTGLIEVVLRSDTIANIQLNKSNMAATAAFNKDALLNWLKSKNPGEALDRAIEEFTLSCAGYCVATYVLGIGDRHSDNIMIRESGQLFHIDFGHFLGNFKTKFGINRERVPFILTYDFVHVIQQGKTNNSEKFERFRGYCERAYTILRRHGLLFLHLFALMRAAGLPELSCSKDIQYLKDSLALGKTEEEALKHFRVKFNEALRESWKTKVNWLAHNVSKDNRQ", "sequence (P27986 whole entry partner)": "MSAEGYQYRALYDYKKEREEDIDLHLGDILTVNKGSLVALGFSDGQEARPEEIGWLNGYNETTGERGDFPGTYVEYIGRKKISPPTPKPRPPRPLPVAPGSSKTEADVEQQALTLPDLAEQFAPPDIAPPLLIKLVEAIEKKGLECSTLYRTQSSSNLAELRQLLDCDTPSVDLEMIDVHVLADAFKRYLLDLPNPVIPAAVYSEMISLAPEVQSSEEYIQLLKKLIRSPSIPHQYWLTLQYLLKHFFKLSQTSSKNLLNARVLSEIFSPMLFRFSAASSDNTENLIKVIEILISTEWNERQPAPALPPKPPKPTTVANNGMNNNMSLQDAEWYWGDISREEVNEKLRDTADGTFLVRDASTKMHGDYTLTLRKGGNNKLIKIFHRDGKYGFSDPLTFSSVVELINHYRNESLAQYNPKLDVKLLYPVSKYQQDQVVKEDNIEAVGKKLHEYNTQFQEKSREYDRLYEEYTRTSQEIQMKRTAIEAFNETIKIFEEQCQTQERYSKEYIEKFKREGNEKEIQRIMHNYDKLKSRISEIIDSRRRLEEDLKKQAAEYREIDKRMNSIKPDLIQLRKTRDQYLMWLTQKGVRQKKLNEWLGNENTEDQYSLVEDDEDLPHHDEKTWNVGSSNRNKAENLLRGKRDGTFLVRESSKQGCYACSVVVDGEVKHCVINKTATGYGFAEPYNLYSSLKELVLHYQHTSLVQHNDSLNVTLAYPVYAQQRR", "test": "PI3K δ cell based assay: H2O2-induced Akt phosphorylation in d-U937 cells", "conditions": "inhibition of induced Akt phosphorylation, H2O2 stimulus; read-out: REC50 values in d-U937 cells, H2O2 stimulus", "method": "As a means of assessing PI3K δ activation in response to stimuli, the phosphorylation status of the protein, Akt, a downstream product of PI3Kδ, signaling was determined.\n(§1) U937 cells, obtained from a human, leukemic, monocyte lymphoma cell line, were differentiated to macrophage-type cells by incubation with PMA (100 ng/mL) for 48 to 72 hr. Cells were then pre-incubated with either the test compound or vehicle for 2 hr and were then stimulated briefly by exposure to H2O2 (10 mM, 5-7 min) and the reaction stopped by replacing the media with 4% formaldehyde solution. […] After washing with buffer (PBS containing 0.1% Triton X-100), cells were incubated with an HRP-conjugated secondary antibody (Dako) and the resultant signal was determined colorimetrically (OD: 450 nm with a reference wavelength of 655 nm) using TMB substrate (substrate reagent pack supplied by R&D Systems, Inc.).\nThis reaction was stopped by the addition of H2SO4 solution (100 μL). […] After washing with buffer (PBS containing 0.1% Triton X-100) 1% SDS (100 μL) was added to each well and the plates were shaken lightly for 1 hr prior to measuring the absorbance at 595 nm (Varioskan® Flash, Thermo-Fisher Scientific). The measured OD450-655 readings were corrected for cell number by dividing the OD450-655 by the OD595 readings. The ratio of pAkt signal to total Akt signal was used to quantitate the extent of PI3K δ activation. […]"}, "[2]": {"target": "PI3K γ (Homo sapiens (Human), UniProt P48736)", "sequence (P48736 whole entry)": "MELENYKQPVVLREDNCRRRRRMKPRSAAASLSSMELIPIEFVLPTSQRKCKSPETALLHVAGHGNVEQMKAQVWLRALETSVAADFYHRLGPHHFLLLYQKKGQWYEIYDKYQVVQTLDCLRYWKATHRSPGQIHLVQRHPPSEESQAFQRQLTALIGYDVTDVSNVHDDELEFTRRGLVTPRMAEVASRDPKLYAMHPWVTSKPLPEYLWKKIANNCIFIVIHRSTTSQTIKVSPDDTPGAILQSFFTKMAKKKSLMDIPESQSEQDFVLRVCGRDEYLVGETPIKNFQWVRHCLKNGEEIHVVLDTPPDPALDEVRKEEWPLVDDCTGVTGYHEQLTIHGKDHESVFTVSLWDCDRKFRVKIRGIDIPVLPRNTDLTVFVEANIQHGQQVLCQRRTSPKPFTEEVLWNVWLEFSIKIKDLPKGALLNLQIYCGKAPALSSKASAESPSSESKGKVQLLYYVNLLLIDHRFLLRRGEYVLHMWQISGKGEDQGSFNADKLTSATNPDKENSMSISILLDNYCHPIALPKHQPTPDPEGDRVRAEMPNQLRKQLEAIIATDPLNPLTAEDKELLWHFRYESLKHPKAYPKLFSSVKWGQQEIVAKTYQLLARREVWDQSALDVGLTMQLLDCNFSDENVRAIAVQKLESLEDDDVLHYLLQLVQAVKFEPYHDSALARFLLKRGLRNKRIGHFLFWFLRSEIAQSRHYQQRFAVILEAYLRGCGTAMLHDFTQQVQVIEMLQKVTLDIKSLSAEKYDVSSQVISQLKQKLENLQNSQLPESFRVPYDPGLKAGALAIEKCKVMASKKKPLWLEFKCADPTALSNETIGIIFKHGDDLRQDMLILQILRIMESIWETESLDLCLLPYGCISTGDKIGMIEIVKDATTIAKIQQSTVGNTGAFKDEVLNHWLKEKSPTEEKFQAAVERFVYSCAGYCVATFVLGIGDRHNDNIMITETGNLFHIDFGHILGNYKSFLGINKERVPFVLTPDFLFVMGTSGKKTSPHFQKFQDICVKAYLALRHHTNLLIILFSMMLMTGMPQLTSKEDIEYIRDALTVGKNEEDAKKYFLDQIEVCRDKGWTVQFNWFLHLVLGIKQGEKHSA", "test": "PI3K γ cell based assay: MCP-1-induced Akt phosphorylation in d-U937 cells", "conditions": "inhibition of induced Akt phosphorylation, MCP-1 stimulus; read-out: REC50 values in d-U937 cells, MCP-1 stimulus", "method": "As a means of assessing the activation of PI3K γ in response to stimuli, the phosphorylation status of the protein, Akt, a downstream product of PI3K γ signalling, was determined following stimulation with MCP-1.\nas §1, with “cells” for “cells, obtained from a human, leukemic, monocyte lymphoma cell line,”, “with MCP-1” for “by exposure to H2O2”, “nM, 1” for “mM, 5-7”\nThis reaction was stopped by addition of 1N H2SO4 solution (100 μL). […] After washing with buffer (PBS containing 0.1% Triton X-100) 1% SDS (100 μL) was added to each well and the plates were shaken lightly for 1 hr prior to measuring the absorbance at 595 nm (Varioskan® Flash, Thermo-Fisher Scientific). The measured OD450-655 readings were corrected for cell number by dividing the OD450-655 by the OD595 readings. The ratio of pAkt signal to total Akt signal was used to quantitate the extent of PI3K γ activation. […]"}, "[3]": {"system": "LPS-induced airway neutrophilia in rats", "test": "LPS-induced airway neutrophil accumulation in rats", "type": "in vivo, rat", "conditions": "i-t; for Neutrophil numbers in BALF: mean ± SEM", "method": "Non-fasted rats were dosed with either vehicle or the test compound by intra-tracheal administration (dose volume 100 μL) at time points T=−2 h, −8 h, or −12 h with respect to the start of LPS treatment. The LPS solution (0.3 mg/mL) was aerosolised using a De Vibliss ultrasonic nebuliser 2000 (7 mL during 30 min). At eight hr after LPS challenge, the trachea was cannulated and bronchoalveolar lavage fluid (BALF) extracted by infusing and then withdrawing PBS (1 mL) into the lungs via the tracheal catheter. This procedure was repeated to provide approximately 2 mL of lavage fluid.\nTotal cell numbers in the BALF samples were measured using a Countess automated cell counter (Invitrogen). Cytospin smears of the BALF samples were prepared by centrifugation at 1200 rpm for 2 min at RT and stained using a DiffQuik stain system (Dade Behring) for differential cell counts. Cells were counted using oil immersion microscopy. Data are expressed as neutrophil number of cells per mL of BALF (mean±S.E.M)."}}, "data": [{"smiles": "COCCOCCOCC#Cc1cccc2nc(Cn3nc(-c4cc(O)cc(F)c4)c4c(N)ncnc43)n(Cc3ccccc3C(F)(F)F)c(=O)c12", "note": "[Compound (I), 2-((4-Amino-3-(3-fluoro-5-hydroxyphenyl)-1H-pyrazolo[3,4-d]pyrimidin-1-yl)methyl)-5-(3-(2-(2-methoxyethoxy)ethoxy)prop-1-yn-1-yl)-3-(2-(trifluoromethyl)benzyl)quinazolin-4(3H)-one]", "values": [{"measurement": "EC50", "setting": "[1]", "result": 7.4, "unit": "nM"}, {"measurement": "EC50", "setting": "[2]", "result": 16.5, "unit": "nM"}, {"measurement": "% inhibition of neutrophil numbers in BALF", "setting": "[3]; 0.05 mg/mL, pre-dose 2 hr", "result": 9, "unit": "%"}, {"measurement": "Neutrophil numbers in BALF", "setting": "[3]; 0.05 mg/mL, pre-dose 2 hr", "result": "13.2 ± 2.3 x10^5/mL"}, {"measurement": "% inhibition of neutrophil numbers in BALF", "setting": "[3]; 0.2 mg/mL, pre-dose 2 hr", "result": 58, "unit": "%"}, {"measurement": "Neutrophil numbers in BALF", "setting": "[3]; 0.2 mg/mL, pre-dose 2 hr", "result": "6.3 ± 1.6 x10^5/mL"}, {"measurement": "% inhibition of neutrophil numbers in BALF", "setting": "[3]; 0.2 mg/mL, pre-dose 8 hr", "result": 33, "unit": "%"}, {"measurement": "Neutrophil numbers in BALF", "setting": "[3]; 0.2 mg/mL, pre-dose 8 hr", "result": "10.1 ± 1.8 x10^5/mL"}, {"measurement": "% inhibition of neutrophil numbers in BALF", "setting": "[3]; 0.2 mg/mL, pre-dose 12 h", "result": 10, "unit": "%"}, {"measurement": "Neutrophil numbers in BALF", "setting": "[3]; 0.2 mg/mL, pre-dose 12 h", "result": "13.6 ± 2.7 x10^5/mL"}, {"measurement": "% inhibition of neutrophil numbers in BALF", "setting": "[3]; 1.0 mg/mL, pre-dose 2 hr", "result": 73, "unit": "%"}, {"measurement": "Neutrophil numbers in BALF", "setting": "[3]; 1.0 mg/mL, pre-dose 2 hr", "result": "4.1 ± 0.7 x10^5/mL"}]}]}
